Assay results: PubChem BioAssay (NCI)
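Five concentrations, 48 hours, 96-well plates. The concentration for 50% growth inhibition is given as GI50. TGI is the concentration that stops growth completely.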

How the values were obtained:
Assay in all cases: NCI tumour cell line growth inhibition, 48 h
EKVX NSCLC = system: EKVX NSCLC
OVCAR-3 ovarian = system: OVCAR-3 ovarian
SF-295 CNS = system: SF-295 CNS
HCT-15 colon = system: HCT-15 colon
UACC-62 melanoma = system: UACC-62 melanoma
ACHN renal = system: ACHN renal
HOP-62 NSCLC = system: HOP-62 NSCLC
MCF7 breast = system: MCF7 breast

O=C(N/C(=C\c1cccc([N+](=O)[O-])c1)c1nc2ccc([N+](=O)[O-])cc2[nH]1)c1ccccc1
TGI (EKVX NSCLC): > 100 µM | TGI (OVCAR-3 ovarian): > 100 µM | TGI (SF-295 CNS): > 100 µM | TGI (HCT-15 colon): > 100 µM | TGI (UACC-62 melanoma): 46.7 µM | TGI (ACHN renal): > 100 µM

Cc1cc(-c2cnn3c(NCC4CC(C)(O)C4)cc(Oc4cccnc4)nc23)ccc1C(=O)NC1CC1 (stereo not drawn)
GI50 (EKVX NSCLC): 3.76 µM | TGI (EKVX NSCLC): > 100 µM | GI50 (OVCAR-3 ovarian): > 100 µM | TGI (OVCAR-3 ovarian): > 100 µM | GI50 (SF-295 CNS): 3.28 µM | TGI (SF-295 CNS): > 100 µM | GI50 (HCT-15 colon): 0.706 µM | TGI (HCT-15 colon): > 100 µM | GI50 (UACC-62 melanoma): 2.67 µM | TGI (UACC-62 melanoma): > 100 µM | GI50 (HOP-62 NSCLC): 8.57 µM | TGI (HOP-62 NSCLC): > 100 µM | GI50 (MCF7 breast): 98.9 µM | TGI (MCF7 breast): > 100 µM | GI50 (ACHN renal): 1.29 µM | TGI (ACHN renal): > 100 µM

Nc1nccc(-c2c(-c3ccc(F)cc3)ncn2C2CCC(O)CC2)n1 (stereo not drawn)
GI50 (EKVX NSCLC): 8.57 µM | TGI (EKVX NSCLC): > 25 µM | GI50 (OVCAR-3 ovarian): 9.47 µM | TGI (OVCAR-3 ovarian): > 25 µM | GI50 (SF-295 CNS): 17.7 µM | TGI (SF-295 CNS): > 25 µM | GI50 (HCT-15 colon): 7.15 µM | TGI (HCT-15 colon): > 25 µM | GI50 (UACC-62 melanoma): 10.6 µM | TGI (UACC-62 melanoma): > 25 µM | GI50 (HOP-62 NSCLC): 13.2 µM | TGI (HOP-62 NSCLC): > 25 µM | GI50 (MCF7 breast): 0.677 µM | TGI (MCF7 breast): > 9.14 µM | GI50 (ACHN renal): 2.83 µM | TGI (ACHN renal): > 25 µM

CCc1ccccc1NC(=O)C1=C(C)NC(C)=C(C(=O)Nc2ccccc2CC)C1c1ccc2c(c1)OCO2
TGI (EKVX NSCLC): > 100 µM | TGI (OVCAR-3 ovarian): 84 µM | TGI (SF-295 CNS): > 100 µM | TGI (HOP-62 NSCLC): 59.8 µM | TGI (ACHN renal): 90.7 µM

CC1CN1C(=O)NCCCCCCNC(=O)N1CC1C (stereo not drawn)
TGI (EKVX NSCLC): > 100 µM | TGI (OVCAR-3 ovarian): > 100 µM | TGI (SF-295 CNS): > 100 µM | TGI (HCT-15 colon): > 100 µM | TGI (UACC-62 melanoma): > 100 µM | TGI (HOP-62 NSCLC): > 100 µM | TGI (MCF7 breast): > 100 µM | TGI (ACHN renal): > 100 µM

N#CSC1CCCCNC1=O (stereo not drawn)
TGI (EKVX NSCLC): 37.5 µM | TGI (OVCAR-3 ovarian): 29.5 µM | TGI (SF-295 CNS): 30.7 µM | TGI (HCT-15 colon): 28.6 µM | TGI (UACC-62 melanoma): 29.1 µM | TGI (HOP-62 NSCLC): 41.8 µM | TGI (MCF7 breast): 18.3 µM | TGI (ACHN renal): 29.9 µM

COc1cc(Nc2nc3ccccc3nc2-c2cccs2)cc(OC)c1OC
TGI (EKVX NSCLC): > 100 µM | TGI (OVCAR-3 ovarian): > 100 µM | TGI (SF-295 CNS): > 100 µM | TGI (HCT-15 colon): > 100 µM | TGI (UACC-62 melanoma): > 100 µM | TGI (HOP-62 NSCLC): > 100 µM | TGI (ACHN renal): > 100 µM

CC1(C)OC2=C(CC1Br)C(=O)C(=O)c1ccccc12 (stereo not drawn)
GI50 (EKVX NSCLC): 1.71 µM | TGI (EKVX NSCLC): 3.47 µM | GI50 (OVCAR-3 ovarian): 1.6 µM | TGI (OVCAR-3 ovarian): 2.98 µM | GI50 (UACC-62 melanoma): 2.08 µM | TGI (UACC-62 melanoma): 3.98 µM | GI50 (HOP-62 NSCLC): 1.99 µM | TGI (HOP-62 NSCLC): 3.62 µM | GI50 (MCF7 breast): 1.68 µM | TGI (MCF7 breast): 3.74 µM | GI50 (ACHN renal): 2.03 µM | TGI (ACHN renal): 3.84 µM

Cc1ccc(C(=O)N(CCCN)C(c2oc3cc(Cl)ccc3c(=O)c2Cc2ccccc2)C(C)C)cc1 (stereo not drawn)
GI50 (OVCAR-3 ovarian): < 0.01 µM | TGI (OVCAR-3 ovarian): 1.14 µM | GI50 (SF-295 CNS): < 0.01 µM | TGI (SF-295 CNS): 1.48 µM | GI50 (HCT-15 colon): < 0.01 µM | TGI (HCT-15 colon): 1.57 µM | GI50 (UACC-62 melanoma): < 0.01 µM | TGI (UACC-62 melanoma): 2.3 µM | GI50 (HOP-62 NSCLC): < 0.01 µM | TGI (HOP-62 NSCLC): 1.85 µM | GI50 (MCF7 breast): < 0.01 µM | TGI (MCF7 breast): 1.39 µM | GI50 (ACHN renal): 1.07 µM | TGI (ACHN renal): 2.39 µM

C[C@@H]1OC(=O)N2CCCC(=C3SCCCS3)C12 (stereo partly drawn)
TGI (EKVX NSCLC): > 100 µM | TGI (OVCAR-3 ovarian): > 100 µM | TGI (SF-295 CNS): > 100 µM | TGI (HCT-15 colon): > 100 µM | TGI (UACC-62 melanoma): > 100 µM | TGI (ACHN renal): > 100 µM

CCN(CC)C(c1ccc(N(C)C)cc1)C(c1ccc(N(C)C)cc1)N(CC)CC (stereo not drawn)
TGI (EKVX NSCLC): > 73 µM | TGI (OVCAR-3 ovarian): > 73 µM | TGI (SF-295 CNS): > 73 µM | TGI (HCT-15 colon): > 73 µM | TGI (UACC-62 melanoma): > 73 µM | TGI (HOP-62 NSCLC): > 73 µM | TGI (ACHN renal): > 73 µM

Cc1cc(Cl)cc2c1NC(=O)C2(O)CC(=O)c1ccco1 (stereo not drawn)
TGI (EKVX NSCLC): > 100 µM | TGI (OVCAR-3 ovarian): > 100 µM | TGI (SF-295 CNS): > 100 µM | TGI (HCT-15 colon): > 100 µM | TGI (UACC-62 melanoma): 67.5 µM | TGI (HOP-62 NSCLC): > 100 µM | TGI (ACHN renal): > 100 µM

Nc1cccc(S(=O)(=O)NCC(=O)O)c1
TGI (EKVX NSCLC): > 100 µM | TGI (OVCAR-3 ovarian): > 100 µM | TGI (SF-295 CNS): > 100 µM | TGI (HCT-15 colon): > 100 µM | TGI (UACC-62 melanoma): > 100 µM | TGI (HOP-62 NSCLC): > 100 µM | TGI (ACHN renal): > 100 µM

O=c1cc(-c2ccccc2)oc2cc(OC/C(=N/O)c3ccccc3)ccc12
GI50 (EKVX NSCLC): 24.8 µM | TGI (EKVX NSCLC): > 50 µM | GI50 (OVCAR-3 ovarian): 12.8 µM | TGI (OVCAR-3 ovarian): > 50 µM | GI50 (SF-295 CNS): 6 µM | TGI (SF-295 CNS): 23.4 µM | GI50 (HCT-15 colon): 22.2 µM | TGI (HCT-15 colon): > 50 µM | GI50 (UACC-62 melanoma): 12.7 µM | TGI (UACC-62 melanoma): > 50 µM | GI50 (HOP-62 NSCLC): 22.4 µM | TGI (HOP-62 NSCLC): > 50 µM | GI50 (ACHN renal): 9.41 µM | TGI (ACHN renal): 20.2 µM

NC1=NC(c2ccccc2)CC(c2cc(Cl)ccc2O)=N1 (stereo not drawn)
TGI (EKVX NSCLC): 29.5 µM | TGI (OVCAR-3 ovarian): 31.6 µM | TGI (SF-295 CNS): 31 µM | TGI (UACC-62 melanoma): 30.4 µM | TGI (HOP-62 NSCLC): 30.2 µM | TGI (ACHN renal): 29.4 µM

CC(C)(C)c1cc(CCC(=O)Nc2ccc(Cl)cc2)nc(NC#N)n1
TGI (EKVX NSCLC): > 100 µM | TGI (OVCAR-3 ovarian): > 100 µM | TGI (SF-295 CNS): > 100 µM | TGI (HCT-15 colon): > 100 µM | TGI (UACC-62 melanoma): > 100 µM | TGI (HOP-62 NSCLC): > 100 µM | TGI (ACHN renal): > 100 µM

O=C(CC1(O)C(=O)Nc2ccccc21)c1ccncc1 (stereo not drawn)
TGI (EKVX NSCLC): > 100 µM | TGI (SF-295 CNS): > 100 µM | TGI (HCT-15 colon): > 100 µM | TGI (UACC-62 melanoma): > 100 µM | TGI (ACHN renal): > 100 µM

COc1ccc2nc3c(C(=O)NCCN(C)C)cccc3nc2c1
TGI (EKVX NSCLC): 15.7 µM | TGI (OVCAR-3 ovarian): 59.9 µM | TGI (SF-295 CNS): 39.1 µM | TGI (HCT-15 colon): 16.6 µM | TGI (UACC-62 melanoma): 21.2 µM | TGI (HOP-62 NSCLC): 21.4 µM | TGI (ACHN renal): > 100 µM

COc1ccc2c(c1)C(=O)c1c-2n(CCCn2ccnc2)c(=O)c2cc([N+](=O)[O-])ccc12
GI50 (EKVX NSCLC): 0.0646 µM | TGI (EKVX NSCLC): > 50.9 µM | GI50 (OVCAR-3 ovarian): 0.0254 µM | TGI (OVCAR-3 ovarian): 4.41 µM | GI50 (SF-295 CNS): < 0.01 µM | GI50 (HCT-15 colon): < 0.0329 µM | TGI (HCT-15 colon): > 100 µM | GI50 (UACC-62 melanoma): < 0.01 µM | TGI (UACC-62 melanoma): 0.075 µM | GI50 (HOP-62 NSCLC): < 0.01 µM | TGI (HOP-62 NSCLC): 0.0119 µM | GI50 (MCF7 breast): < 0.01 µM | TGI (MCF7 breast): > 100 µM

COC1(OC)CC2OC1C1N=NN(C(=O)OC(C)(C)C)C21 (stereo not drawn)
TGI (OVCAR-3 ovarian): > 100 µM | TGI (SF-295 CNS): > 100 µM | TGI (HCT-15 colon): > 100 µM | TGI (UACC-62 melanoma): > 100 µM | TGI (HOP-62 NSCLC): > 100 µM | TGI (ACHN renal): > 100 µM

Cc1cc(N(CCC#N)CCC#N)ccc1/C=C1\N=C(c2cc([N+](=O)[O-])ccc2Cl)N(c2cccc(Cl)c2)C1=O
TGI (EKVX NSCLC): > 100 µM | TGI (OVCAR-3 ovarian): > 100 µM | TGI (SF-295 CNS): > 100 µM | TGI (HCT-15 colon): > 100 µM | TGI (UACC-62 melanoma): > 100 µM | TGI (HOP-62 NSCLC): > 100 µM | TGI (ACHN renal): > 100 µM

O=C(CCc1cc(-c2ccccc2)nc(=S)[nH]1)N(Cc1ccccc1)Cc1ccccc1
TGI (EKVX NSCLC): > 100 µM | TGI (OVCAR-3 ovarian): > 100 µM | TGI (SF-295 CNS): > 100 µM | TGI (HCT-15 colon): > 100 µM | TGI (UACC-62 melanoma): > 100 µM | TGI (HOP-62 NSCLC): > 100 µM | TGI (ACHN renal): > 100 µM

O=[N+]([O-])c1ccc(C=NC2CCCCC2)cc1
TGI (EKVX NSCLC): > 100 µM | TGI (OVCAR-3 ovarian): > 100 µM | TGI (SF-295 CNS): > 100 µM | TGI (HCT-15 colon): > 100 µM | TGI (UACC-62 melanoma): > 100 µM | TGI (HOP-62 NSCLC): > 100 µM | TGI (ACHN renal): > 100 µM
